Where two headings read alike, the source gives them in different places.

Here are results for 3 compounds from patent US12246089B2, “Method for treatment of a viral-mediated infectious disease” (Virothera Pharmaceuticals LLC, priority 2020, dated 2025).

Data set [1] is described as follows: Encapsulation efficiency and loading capacity of niclosamide by HPLC. The settings on record: niclosamide in niclosamide, HPLC 333-346 nm.
A further data set concerns SARS-CoV-2. Particulars: in vitro; cited from earlier work.
Another data set has as its system SARS-CoV. Particulars: by interfering with glycosylation of ACE2; cited from earlier work.
The next data set deals with COVID-19. Particulars: cited from earlier work.
Data set [2] deals with severe coronavirus disease 2019 patients with coagulopathy. Particulars: cited from earlier work.
Data set [3] has as its target SARS-CoV-2 spike glycoprotein (SGP) (Severe acute respiratory syndrome coronavirus 2, UniProt P0DTC2). The settings on record: cited from earlier work.
The test system of data set [4] is viruses including COVID-19 viruses. Particulars: cited from earlier work.
Another data set deals with patients with COPD. Particulars: cited from earlier work.
The next data set deals with inhalation injury (IHI). The settings on record: nebulized; cited from earlier work.
The conditions of data set [5]: cited from earlier work.

With `O=C(Nc1ccc([N+](=O)[O-])cc1Cl)c1cc(Cl)ccc1O` [niclosamide], in data set [1], the encapsulation efficiency was 90% and the loading capacity worked out at 10.0%.

As for `CCN(CCO)CCCC(C)Nc1ccnc2cc(Cl)ccc12` (stereo not drawn) [hydroxychloroquine], the “viral copy number of SARS-CoV-2” value in the data set with SARS-CoV-2 was “effectively reduce the viral copy number”. Moreover, the “replication of SARS-CoV” value with SARS-CoV was “specifically inhibit the replication of SARS-CoV”. For the same compound, the “clinical benefit of combination with azithromycin” value in the data set with COVID-19 (11 patients with severe COVID-19) is recorded as “no evidence of clinical benefit”. Also, in the data set on COVID-19 (several clinical trials in China), the “effectiveness in COVID-19-associated pneumonia” value was “to various degree effective”. For the same compound, in the data set on COVID-19 (small open-label non-randomized clinical trial from France), the “clinical effect in combination with azithromycin” value is given as “positive effect”.

What is called mortality is the share of the test organisms that died. As for heparin, the mortality in [2] (patients meeting sepsis induced coagulopathy (SIC) criteria ≥4, heparin therapy (vs 64.2%, P=0.029)) is recorded as 40.0%; in [2] (patients with SIC score <4, heparin therapy (vs 22.6%, P=0.419)) it was 29.0%. Moreover, the SGP binding affinity result in [3] was “high sub-nanomolar affinity”. The “binding affinity to viruses” value in data set [4] is “nanomolar to sub-nanomolar”. In addition, the lung function entry in the data set on patients with COPD (inhaled, 21 days of treatment, COPD patients receiving pulmonary rehabilitation) is “significantly improves lung function”. Further, the “safety of inhaled nebulized UFH” value in the data set with patients with COPD (patients with moderate to very severe COPD) is “safe”. For the same compound, the “lung function and mortality in IHI” value in the data set with inhalation injury (IHI) was “promotes improvement in lung function and decreased mortality”. Besides, in [5], the plasma protein binding result is recorded as “high plasma protein binding”.
